One assay concerns the target T1, Protein O-GlcNAcase (Homo sapiens, UniProt O60502).
T1 sequence (O60502 whole entry): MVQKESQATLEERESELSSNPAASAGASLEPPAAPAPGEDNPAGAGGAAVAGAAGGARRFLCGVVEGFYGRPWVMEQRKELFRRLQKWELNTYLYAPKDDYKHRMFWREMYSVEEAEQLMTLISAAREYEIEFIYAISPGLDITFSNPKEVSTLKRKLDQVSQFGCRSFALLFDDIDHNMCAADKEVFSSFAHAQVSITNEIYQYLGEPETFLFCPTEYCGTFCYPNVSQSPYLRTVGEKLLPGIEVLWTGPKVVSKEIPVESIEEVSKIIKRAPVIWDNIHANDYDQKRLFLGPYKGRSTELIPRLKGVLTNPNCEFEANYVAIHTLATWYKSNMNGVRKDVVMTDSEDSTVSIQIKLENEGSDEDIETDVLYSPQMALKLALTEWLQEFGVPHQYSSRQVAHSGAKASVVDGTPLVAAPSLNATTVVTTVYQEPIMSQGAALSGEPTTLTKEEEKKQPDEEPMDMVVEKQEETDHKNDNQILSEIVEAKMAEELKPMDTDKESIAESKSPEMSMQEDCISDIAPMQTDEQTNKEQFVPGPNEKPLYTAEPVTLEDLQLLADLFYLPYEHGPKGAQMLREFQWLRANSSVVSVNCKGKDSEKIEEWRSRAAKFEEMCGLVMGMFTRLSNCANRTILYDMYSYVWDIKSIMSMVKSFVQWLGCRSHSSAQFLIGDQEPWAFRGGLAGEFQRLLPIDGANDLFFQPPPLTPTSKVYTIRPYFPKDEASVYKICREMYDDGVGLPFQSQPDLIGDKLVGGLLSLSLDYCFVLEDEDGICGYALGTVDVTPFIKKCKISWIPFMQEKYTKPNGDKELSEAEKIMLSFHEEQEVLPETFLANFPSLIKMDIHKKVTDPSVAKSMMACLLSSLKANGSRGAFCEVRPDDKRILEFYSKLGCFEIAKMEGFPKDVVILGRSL
The assay is described as follows: Enzyme Inhibition Assay. The note with it: pH 4.25; 30 °C. The text has this: (§1) Enzyme inhibition activity assay using 4-methylumbelliferyl N-acetylglucosamine (MUG) as substrate.

Assay [1] has as its target T2, Beta-hexosaminidase subunit beta (Homo sapiens, UniProt P07686).
T2 sequence (P07686 whole entry): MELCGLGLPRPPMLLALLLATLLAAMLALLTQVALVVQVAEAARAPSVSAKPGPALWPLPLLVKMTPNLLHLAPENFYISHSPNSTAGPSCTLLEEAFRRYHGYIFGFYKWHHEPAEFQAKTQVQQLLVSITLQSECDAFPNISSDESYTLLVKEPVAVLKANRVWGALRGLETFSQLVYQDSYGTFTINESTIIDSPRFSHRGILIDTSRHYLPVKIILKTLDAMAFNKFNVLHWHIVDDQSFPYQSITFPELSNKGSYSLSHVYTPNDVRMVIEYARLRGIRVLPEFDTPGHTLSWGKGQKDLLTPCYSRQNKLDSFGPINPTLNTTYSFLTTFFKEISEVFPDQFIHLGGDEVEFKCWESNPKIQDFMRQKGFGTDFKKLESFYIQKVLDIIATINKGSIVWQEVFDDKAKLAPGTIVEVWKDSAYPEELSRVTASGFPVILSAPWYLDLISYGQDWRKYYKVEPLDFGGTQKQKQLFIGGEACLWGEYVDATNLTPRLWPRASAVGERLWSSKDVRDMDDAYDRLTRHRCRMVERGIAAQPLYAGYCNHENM
The assay can be described thus: Enzyme Inhibition Assay. The note with it: pH 4.25; 30 °C.
From the text: as §1

On to `CC(=O)N[C@H]1CN[C@H](CO)[C@@H](O)[C@@H]1O`, for which the Ki on Protein O-GlcNAcase stood at 23.6 µM; in assay [1] it was 0.54 µM.
